We go through 40 molecules from US10478425B2, “5-phenylazaindole derivative having AMPK-activating activity” (Shionogi & Co., Ltd., priority 2016, dated 2019).

This test deals with T1, Human AMPK α2β2γ1 (Homo sapiens, UniProt O43741+P54646).
T1 construct: The full length cDNAs of human AMPK β2 (NM_005399.3) and human AMPK α2 (NM_006252.3); The full length cDNAs of human AMPK β2 (NM_005399.3); the full length cDNA of human AMPK γ1 (NM_002733.3) had been inserted into pET28b(+); 6×His (N); made in house; host or cells: Escherichia coli BL21 CodonPlus (DE3)-RIL
Briefly: Test Example 2: activation of phosphorylated human AMPK α2β2γ1 (mobility-shift kinase assay, FL-Peptide 7). Format: biochemical. To be noted: for EC150: compound concentration showing 150% relative to the control (100%), human AMPK α2β2γ1 phosphorylated with CaMKK2; for Emax: maximum rate of increase in activity within the measurement range, control = 100%. The gist of the method:
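His-tagged α2β2γ1 expressed in E. coli was pre-phosphorylated by GST-CaMKKβ (25 °C, 1–1.5 h), then exposed to compound for 10 min (1% DMSO). Reaction: pH 7.0 HEPES, ATP and 1.5 μM FL-Peptide 7 (final), 2 h at 25 °C. Mobility-shift conversion gave % activity increase versus compound-free control.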

Where two headings read alike, the source gives them in different places.

T1 sequence (P54646 whole entry): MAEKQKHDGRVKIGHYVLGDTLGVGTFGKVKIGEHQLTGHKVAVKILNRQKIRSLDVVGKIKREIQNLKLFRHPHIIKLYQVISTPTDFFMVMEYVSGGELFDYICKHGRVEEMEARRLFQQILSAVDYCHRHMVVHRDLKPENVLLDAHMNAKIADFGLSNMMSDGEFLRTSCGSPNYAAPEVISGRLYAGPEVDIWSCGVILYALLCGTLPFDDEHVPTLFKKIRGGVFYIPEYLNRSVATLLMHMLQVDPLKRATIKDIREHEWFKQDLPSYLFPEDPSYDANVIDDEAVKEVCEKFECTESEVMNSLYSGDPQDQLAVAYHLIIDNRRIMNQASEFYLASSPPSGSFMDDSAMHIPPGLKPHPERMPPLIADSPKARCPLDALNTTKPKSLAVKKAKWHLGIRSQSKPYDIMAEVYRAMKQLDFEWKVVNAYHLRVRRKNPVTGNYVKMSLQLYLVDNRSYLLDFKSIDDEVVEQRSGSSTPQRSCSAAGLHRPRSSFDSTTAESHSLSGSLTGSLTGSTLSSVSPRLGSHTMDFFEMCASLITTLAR
T1 sequence (O43741 whole entry): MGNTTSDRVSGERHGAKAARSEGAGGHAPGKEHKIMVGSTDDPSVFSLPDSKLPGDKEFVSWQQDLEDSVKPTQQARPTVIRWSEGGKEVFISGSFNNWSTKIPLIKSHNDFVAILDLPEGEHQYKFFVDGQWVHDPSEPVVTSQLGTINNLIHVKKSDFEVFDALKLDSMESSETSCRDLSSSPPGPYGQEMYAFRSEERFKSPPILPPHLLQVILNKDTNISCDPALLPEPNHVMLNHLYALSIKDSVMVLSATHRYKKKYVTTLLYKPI
T1 sequence (P54619 whole entry partner): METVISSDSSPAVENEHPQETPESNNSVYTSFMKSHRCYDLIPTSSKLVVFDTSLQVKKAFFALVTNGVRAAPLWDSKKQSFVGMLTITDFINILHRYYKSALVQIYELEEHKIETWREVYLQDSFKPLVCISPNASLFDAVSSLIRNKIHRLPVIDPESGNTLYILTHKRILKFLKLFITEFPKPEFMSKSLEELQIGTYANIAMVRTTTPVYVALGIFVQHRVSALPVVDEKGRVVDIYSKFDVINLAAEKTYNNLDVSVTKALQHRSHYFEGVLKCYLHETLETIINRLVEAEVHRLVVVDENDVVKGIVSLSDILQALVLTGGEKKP

As for `CN1CCN(c2ccc(-c3ccc(-c4nc5cc(O[C@@H]6CO[C@H]7[C@@H]6OC[C@H]7O)[nH]c5cc4F)cc3)cc2)C1=O` [Compound I-2-53], the EC150 was 4.2 nM. Besides, where the note is “read-out: Emax”, the Emax (commonly the maximal effect, on the per cent scale that the assay sets) was found to be 638%.

As to `CS(C)(=O)=Nc1ccc(-c2ccc(-c3nc4cc(O[C@@H]5CC[C@@H](CO)OC5)[nH]c4cc3F)cc2)cc1` [Compound I-1-06], the EC150 stood at 19 nM. For the same molecule, where the note is “read-out: Emax”, the Emax was 263%.

Consider `O[C@@H]1CO[C@H]2[C@@H]1OC[C@H]2Oc1cc2nc(-c3ccc(N4CCC(OC5CCNC5)CC4)cc3)c(F)cc2[nH]1` (some centres unmarked) [Compound I-2-57], for which the EC150 was 26 nM. Also, where the note is “read-out: Emax”, the Emax was 601%.

For `COCCS(=O)(=O)c1ccc(-c2ccc(-c3nc4cc(O[C@@H]5CO[C@H]6[C@@H]5OC[C@H]6O)[nH]c4cc3F)cc2)cc1` [Compound I-2-95], the EC150 came to 2.6 nM. Where the note is “read-out: Emax”, the Emax was 634%.

On to `CNC(=O)c1ccc(-c2ccc(-c3nc4cc(O[C@@H]5CO[C@H](CO)C5)[nH]c4cc3F)cc2)cc1` [Compound I-2-88], for which the EC150 is 0.62 nM. Also, the Emax (read-out: Emax) was found to be 683%.

As for `OC[C@H]1OC[C@@H](Oc2cc3nc(-c4ccc(C5(CO)CC5)cc4)c(F)cc3[nH]2)C1(F)F` [Compound I-2-90], the EC150 came to 1.9 nM. Further, where the note is “read-out: Emax”, the Emax is 406%.

Turning to `CS(C)(=O)=Nc1ccc(-c2ccc(-c3nc4cc(O[C@@H]5CO[C@H](CO)C5(F)F)[nH]c4cc3F)cc2)cc1` [Compound I-2-43], the EC150 worked out at 6.2 nM. The Emax (read-out: Emax) worked out at 514%.

Consider `CC(C)OC(=O)NC1CCN(c2ccc(-c3nc4cc(O[C@@H]5CO[C@H]6[C@@H]5OC[C@H]6O)[nH]c4cc3F)cc2)CC1` [Compound I-1-34], for which the EC150 is reported as 8.6 nM. The maximal effect (Emax) (read-out: Emax) was 518%.

Regarding `OCCCc1ccc(-c2ccc(-c3nc4cc(O[C@@H]5CO[C@H]6[C@@H]5OC[C@H]6O)[nH]c4cc3F)cc2)cc1` [Compound I-2-30], the EC150 came to 4.3 nM. Besides, the maximum response (Emax) (read-out: Emax) was 605%.

As to `C[S+]([O-])c1ccc(-c2ccc(-c3nc4cc(O[C@@H]5CO[C@H](CO)C5)[nH]c4cc3F)cc2)cc1` (single isomer, unassigned) [Compound I-2-07], the EC150 is on record as 0.68 nM and the Emax is 638%.

In the case of `CNC(=O)c1ccc(-c2ccc(-c3nc4cc(O[C@@H]5CO[C@H]6[C@@H]5OC[C@H]6O)[nH]c4cc3F)cc2)cc1F` [Compound I-1-54], the EC150 is 3.3 nM. In addition, the Emax (read-out: Emax) is 416%.

As to `COC(=O)N[C@H]1CC[C@H](c2ccc(-c3nc4cc(O[C@@H]5CO[C@H]6[C@@H]5OC[C@H]6O)[nH]c4cc3F)cc2)CC1` [Compound I-1-39], the EC150 was determined as 13 nM. The maximal response (Emax) (read-out: Emax) is 552%.

For `CN(C)S(=N)(=O)c1ccc(-c2ccc(-c3nc4cc(O[C@@H]5CO[C@H](CO)C5)[nH]c4cc3F)cc2)cc1` (some centres unmarked) [Compound I-2-25], the EC150 is 1.9 nM. Also, under “read-out: Emax”, the Emax came to 426%.

`O[C@@H]1CO[C@H]2[C@@H]1OC[C@H]2Oc1cc2nc(-c3ccc(-c4ccc(Oc5cccnc5)cc4)cc3)c(F)cc2[nH]1` [Compound I-2-36]: the EC150 worked out at 43 nM. For the same molecule, the Emax (read-out: Emax) worked out at 385%.

In the case of `CCP(=O)(CC)c1ccc(-c2ccc(-c3nc4cc(O[C@@H]5CO[C@H](CO)C5)[nH]c4cc3F)cc2)cc1` [Compound I-2-78], the EC150 was found to be 1.5 nM. Further, the Emax (read-out: Emax) came to 573%.

As for `O=C1OCCN1c1ccc(-c2ccc(-c3nc4cc(O[C@@H]5CO[C@H]6[C@@H]5OC[C@H]6O)[nH]c4cc3F)cc2)cc1` [Compound I-2-41], the EC150 is recorded as 0.8 nM. In addition, the Emax (read-out: Emax) came out at 634%.

Consider `CO[C@@H]1CO[C@H]2[C@@H]1OC[C@H]2Oc1cc2nc(-c3ccc(-c4ccc(N=S(C)(C)=O)cc4)cc3)c(F)cc2[nH]1` [Compound I-1-07], for which the EC150 is 15 nM. For the same molecule, the Emax (read-out: Emax) turned out to be 189%.

In the case of `COC(=O)N1CC=C(c2ccc(-c3nc4cc(O[C@@H]5CO[C@H]6[C@@H]5OC[C@H]6O)[nH]c4cc3F)cc2)CC1` [Compound I-1-43], the EC150 came to 7 nM. The Emax (read-out: Emax) was found to be 514%.

On to `CS(=O)(=O)c1ccc(-c2ccc(-c3nc4cc(O[C@@H]5CO[C@H](CO)C5)[nH]c4cc3F)cc2)cc1` [Compound I-2-79], for which the EC150 worked out at 0.69 nM. Moreover, the Emax (read-out: Emax) was 591%.

On to `COCCOCCOc1ccc(-c2ccc(-c3nc4cc(O[C@@H]5CO[C@H]6[C@@H]5OC[C@H]6O)[nH]c4cc3F)cc2)cc1` [Compound I-2-48], for which the EC150 was determined as 1.1 nM. Moreover, the Emax (read-out: Emax) worked out at 635%.

As for `Clc1cc2[nH]c(O[C@H]3CCOC3)cc2nc1-c1ccc(-c2ccc(OC3CCNC3)cc2)cc1` (some centres unmarked) [Compound I-2-21], the EC150 is on record as 13 nM. In addition, the Emax (read-out: Emax) was 249%.

Take `Cc1cc(-c2ccc(N=S(C)(C)=O)cc2)ccc1-c1nc2cc(O[C@@H]3CO[C@H]4[C@@H]3OC[C@H]4O)[nH]c2cc1F` [Compound I-1-48]: the EC150 is listed as 2.9 nM. Moreover, under “read-out: Emax”, the Emax turned out to be 576%.

As for `O[C@@H]1CO[C@H]2[C@@H]1OC[C@H]2Oc1cc2nc(-c3ccc(-c4ccc(NC5=NCCO5)cc4)cc3)c(F)cc2[nH]1` [Compound I-1-61], the EC150 was 2.3 nM. Moreover, the Emax (read-out: Emax) was 383%.

Regarding `O=S1(=Nc2ccc(-c3ccc(-c4nc5cc(O[C@@H]6CO[C@H]7[C@@H]6OC[C@H]7O)[nH]c5cc4F)cc3)cc2)CCOCC1` [Compound I-1-42], the EC150 was found to be 5.3 nM. Also, the Emax (read-out: Emax) worked out at 472%.

Consider `O=C(c1ccc(-c2ccc(-c3nc4cc(O[C@@H]5CO[C@H]6[C@@H]5OC[C@H]6O)[nH]c4cc3F)cc2)cc1)N1CCCC1` [Compound I-1-09], for which the EC150 is recorded as 4.8 nM. Also, for the setting “read-out: Emax”, the Emax was found to be 475%.

With `O[C@@H]1CO[C@H]2[C@@H]1OC[C@H]2Oc1cc2nc(-c3ccc(-c4ccc(C5=NCCO5)cc4)cc3)c(F)cc2[nH]1` [Compound I-1-15], the EC150 is 0.58 nM. The Emax (read-out: Emax) amounted to 525%.

Regarding `CNS(C)(=O)=Nc1ccc(-c2ccc(-c3nc4cc(O[C@@H]5CO[C@H](CO)C5)[nH]c4cc3F)cc2)cc1` (some centres unmarked) [Compound I-2-46], the EC150 is on record as 2.8 nM. For the same molecule, the Emax (read-out: Emax) was determined as 699%.

Take `COCCN(C(C)=O)c1ccc(-c2ccc(-c3nc4cc(O[C@@H]5CO[C@H]6[C@@H]5OC[C@H]6O)[nH]c4cc3F)cc2)cc1` [Compound I-2-37]: the EC150 was 4.5 nM. For the same molecule, under “read-out: Emax”, the Emax worked out at 415%.

With `CS(C)(=O)=NC1CC=C(c2ccc(-c3nc4cc(O[C@@H]5CO[C@H](CO)C5)[nH]c4cc3F)cc2)CC1` (some centres unmarked) [Compound I-2-73], the EC150 is listed as 4.2 nM. Under “read-out: Emax”, the Emax was determined as 681%.

Regarding `CO[C@@H]1[C@@H](CO)OC[C@H]1Oc1cc2nc(-c3ccc(-c4ccc(N=S(C)(C)=O)cc4)cc3)c(F)cc2[nH]1` [Compound I-2-38], the EC150 amounted to 9.2 nM. Moreover, the Emax (read-out: Emax) is 597%.

Turning to `CS(C)(=O)=Nc1ccc(-c2ccc(-c3nc4cc(O[C@H]5CCOC5)[nH]c4cc3F)cc2)cc1` [Compound I-1-46], the EC150 stood at 6.6 nM. Moreover, the maximal response (Emax) (read-out: Emax) came out at 276%.

As for `CCC(=O)NC1CC(c2ccc(-c3nc4cc(O[C@@H]5CO[C@H]6[C@@H]5OC[C@H]6O)[nH]c4cc3F)cc2)C1` (some centres unmarked) [Compound I-1-40], the EC150 turned out to be 29 nM. In addition, the Emax (read-out: Emax) was determined as 541%.

Regarding `COCCS(=N)(=O)c1ccc(-c2ccc(-c3nc4cc(O[C@@H]5CO[C@H]6[C@@H]5OC[C@H]6O)[nH]c4cc3F)cc2)cc1` (some centres unmarked) [Compound I-2-96], the EC150 was found to be 2.9 nM. For the same molecule, the Emax (read-out: Emax) turned out to be 631%.

`COC(=O)NC1CCN(c2ccc(-c3nc4cc(O[C@@H]5CO[C@H](CO)C5)[nH]c4cc3F)cc2)CC1` [Compound I-1-03]: the EC150 is reported as 9.8 nM. In addition, for the setting “read-out: Emax”, the Emax amounted to 556%.

For `COCCCc1ccc(-c2ccc(-c3nc4cc(O[C@@H]5CO[C@H]6[C@@H]5OC[C@H]6O)[nH]c4cc3F)cc2)cc1` [Compound I-2-29], the EC150 is recorded as 48 nM. For the same molecule, where the note is “read-out: Emax”, the Emax was determined as 367%.

Consider `COCCOC1CCN(c2ccc(-c3nc4cc(O[C@@H]5CO[C@H]6[C@@H]5OC[C@H]6O)[nH]c4cc3F)cc2)CC1` [Compound I-2-34], for which the EC150 is given as 20 nM. Besides, the Emax (read-out: Emax) is 425%.

In the case of `CS(C)(=O)=Nc1ccc(-c2ccc(-c3nc4cc(O[C@@H]5CO[C@H]6[C@@H]5OC[C@H]6O)[nH]c4cc3Cl)cc2)cc1` [Compound I-1-30], the EC150 is on record as 1.7 nM. Besides, under “read-out: Emax”, the Emax worked out at 500%.

Take `CCO[C@H]1[C@@H](CO)OC[C@H]1Oc1cc2nc(-c3ccc(-c4ccc(N=S(C)(C)=O)cc4)cc3)c(F)cc2[nH]1` [Compound I-2-55]: the EC150 came out at 19 nM. Moreover, the Emax (read-out: Emax) worked out at 507%.

For the molecule `CN(C)CCOc1ccc(-c2ccc(-c3nc4cc(O[C@@H]5CO[C@H]6[C@@H]5OC[C@H]6O)[nH]c4cc3F)cc2)cc1` [Compound I-1-68], the EC150 came out at 2.5 nM. Also, the Emax (read-out: Emax) turned out to be 360%.

`O=C(c1ccc(-c2ccc(-c3nc4cc(O[C@@H]5CO[C@H](CO)C5)[nH]c4cc3F)cc2)cc1)N1CCOCC1` [Compound I-2-81]: the EC150 is 0.78 nM. Also, for the setting “read-out: Emax”, the Emax stood at 591%.
